Experimental data: patent US11851710B2, “Methods and materials for identifying metastatic malignant skin lesions and treating skin cancer” (Mayo Foundation for Medical Education and Research, priority 2014, dated 2023)

Tests used:
Type in all cases: cell-based
β3 integrin = assay: Cell surface β3 integrin expression by flow cytometry after overnight drug incubation; conditions: B-rafV600E melanoma cells, 5 μM
Experimental: (§1) FIGS. 13A-13P illustrate B-raf^V600E inhibits FAK to promote integrin surface expression. FIG. 13A: shRNAs 841, 102 and NC were induced in WM858 cells by IPTG for 5 days (n=4) followed by RNA quantitation. Genes regulated at 0 vs. 0.05 mM IPTG in 841 and 102 but not NC cells are shown. These were: ITGB3 (orange), FAK (blue). Light orange, light blue: up- or down-regulation, respectively, by either 841 or 102 shRNA. FIG. 13B: WM858 cells were transfected with FAK or EGFP cDNA. Regulated genes, FAK over EGFP cells, are shown in orange (up) or blue (down) (n=4). FIG. 13C: Flow cytometry of NC, 841 and 102 cells (un-induced vs. 0.05 mM IPTG for 5 days). FIG. 13D: Integrin cell surface mean intensities; mean.+−.s.d.; n=3; *, p<0.05; p values, Student's t-test; ns, not significant. FIG. 13E: Visualization of focal adhesions by paxillin staining on micropatterned fibronectin disks. FIGS. 13F and 13G: Proliferation speed in the absence (FIG. 13F) or presence (FIG. 13G) of FAK shRNAs; mean.+−.s.d.; n=8; *, p<0.05; p values, Student's t-test; ns, not significant. FIGS. 13H and 13I: Scratch wound healing in IPTG-induced cells; representative experiment (n=3). FIGS. 13J and 13K: Effect of IPTG-induced FAK knock-down on total (t) and phospho (p)-ERK; mean.+−.s.d.; n=4; *, p<0.05; p values, Student's t-test. FIG. 13L: Cell surface β1 and β3 integrin expression (flow cytometry) in B-raf^V600E and wild-type cells after overnight drug incubation; % expression relative to DMSO is shown. FIGS. 13M-13O: FAK/ERK levels in NHM and WM858 after overnight drug incubation (FIG. 13M); quantification of FAK (FIG. 13N) and ERK phosphorylation (FIG. 13O); mean.+−.s.d.; n=4; *, p<0.05; p values, Student's t-test. FIG. 13P: ERK activity in NC, 841 and 102 cells (0.05 mM IPTG for 5 days) after overnight drug incubation.
Isopropyl β-D-1-thiogalactopyranoside (IPTG), 4′,6-Diamidino-2-phenylindole dihydrochloridemitomycin (DAPI), blebbistatin and PF-573228 were purchased from Sigma-Aldrich. Dabrafenib (GSK2118436) was purchased from Selleckchem. FAK antibody (06-543) was from EMD MILLIPORE®. FAK pY397 (44624G) antibody was from Life Technologies. Total ERK (9102) and phospho-ERK (4370) antibodies were from Cell Signaling. Paxillin (610051), ITGB3 (555754), ITGB1 (555443) and mouse IgG1 kappa (555749) antibodies were from BD Transduction Labs. Drugs were used at 5 μM final concentration. EGFP control cDNA was from (Lonza). […]
(§2) PYK2, a FAK-like tyrosine kinase, could not be detected in WM858 cells, irrespective of endogenous FAK levels. WM858 cells carrying control (NC) or FAK-specific shRNAs (841 and 102) were then exposed to IPTG for 5 days, and changes in adhesion gene expression were subsequently quantified by PCR. […]

ERK = ERK activity (phospho-ERK) by Western blotting after overnight drug incubation; conditions: WM858 melanoma cells, 5 μM
Experimental: FIGS. 13A-13P illustrate B-raf^V600E inhibits FAK to promote integrin surface expression. FIG. 13A: shRNAs 841, 102 and NC were induced in WM858 cells by IPTG for 5 days (n=4) followed by RNA quantitation. Genes regulated at 0 vs. 0.05 mM IPTG in 841 and 102 but not NC cells are shown. These were: ITGB3 (orange), FAK (blue). Light orange, light blue: up- or down-regulation, respectively, by either 841 or 102 shRNA. FIG. 13B: WM858 cells were transfected with FAK or EGFP cDNA. Regulated genes, FAK over EGFP cells, are shown in orange (up) or blue (down) (n=4). FIG. 13C: Flow cytometry of NC, 841 and 102 cells (un-induced vs. 0.05 mM IPTG for 5 days). FIG. 13D: Integrin cell surface mean intensities; mean.+−.s.d.; n=3; *, p<0.05; p values, Student's t-test; ns, not significant. FIG. 13E: Visualization of focal adhesions by paxillin staining on micropatterned fibronectin disks. […] FIGS. 13M-13O: FAK/ERK levels in NHM and WM858 after overnight drug incubation (FIG. 13M); quantification of FAK (FIG. 13N) and ERK phosphorylation (FIG. 13O); mean.+−.s.d.; n=4; *, p<0.05; p values, Student's t-test. […]
as §2

β1 integrin = assay: Cell surface β1 integrin expression by flow cytometry after overnight drug incubation; conditions: 5 μM
Experimental: as §1
Isopropyl β-D-1-thiogalactopyranoside (IPTG), 4′,6-Diamidino-2-phenylindole dihydrochloridemitomycin (DAPI), blebbistatin and PF-573228 were purchased from Sigma-Aldrich. Dabrafenib (GSK2118436) was purchased from Selleckchem. FAK antibody (06-543) was from EMD MILLIPORE®. FAK pY397 (44624G) antibody was from Life Technologies. Total ERK (9102) and phospho-ERK (4370) antibodies were from Cell Signaling. Paxillin (610051), ITGB3 (555754), ITGB1 (555443) and mouse IgG1 kappa (555749) antibodies were from BD Transduction Labs. Drugs were used at 5 μM final concentration. EGFP control cDNA was from (Lonza). FAK cDNA was obtained from A. Huttenlocher, Addgene plasmid number 35039 (Chan et al., J. Biol. Chem., 285:11418-26 (2010)).
PYK2, a FAK-like tyrosine kinase, could not be detected in WM858 cells, irrespective of endogenous FAK levels. WM858 cells carrying control (NC) or FAK-specific shRNAs (841 and 102) were then exposed to IPTG for 5 days, and changes in adhesion gene expression were subsequently quantified by PCR. […] Moreover, Dabrafenib-induced blockage of ERK activity could be partially reversed by a complete FAK knock-down in 102 cells (FIG. 13P).

Compound	β3 integrin surface levels (β3 integrin)	ERK activity (ERK)	β1 integrin surface levels (β1 integrin; B-raf wild-type melanoma cells)	β1 integrin surface levels (β1 integrin; B-rafV600E melanoma cells)
CS(=O)(=O)c1cccc(CNc2nc(Nc3ccc4c(c3)CCC(=O)N4)ncc2C(F)(F)F)c1 [PF-573228]	induced	induce	not	induced
Cc1ccc2c(c1)C(=O)C1(O)CCN(c3ccccc3)C1=N2 (stereo not shown) [blebbistatin]	induced		not	induced
